Laboratory results as given in patent US12077503B2, “Substituted cyclic amides and their use as herbicides” (FMC CORPORATION, priority 2015, dated 2024).

Experiments:
Type in all cases: in vivo
[1] = test system: ducksalad (Heteranthera limosa); assay: Test B flooded paddy test; details: Heteranthera limosa, 250 g ai/ha, Flood; 0 to 100 scale where 0 is no effect and 100 is complete control; read-out: Ducksalad plant response rating
Method in brief: (§1)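 Flooding to 3 cm over soil accompanied treatment, which consisted of adding compound to the standing water around 2-leaf plants; depth was then maintained. Visual assessment versus controls followed at 13 to 15 d (scale 0–100, 0 meaning no effect).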

[2] = test system: rice (Oryra sativa); assay: Test B flooded paddy test; details: Oryza sativa, 250 g ai/ha, Flood; 0 to 100 scale where 0 is no effect and 100 is complete control; read-out: Rice plant response rating
Method in brief: as §1

[3] = test system: barnyardgrass (Echinochloa crus-galli); assay: Test B flooded paddy test; details: Echinochloa crus-galli, 250 g ai/ha, Flood; 0 to 100 scale where 0 is no effect and 100 is complete control; read-out: Barnyardgrass plant response rating
Method in brief: as §1

[4] = test system: sedge, umbrella (small-flower umbrella sedge, Cyperus difformis); assay: Test B flooded paddy test; details: Cyperus difformis, 250 g ai/ha, Flood; 0 to 100 scale where 0 is no effect and 100 is complete control; read-out: Sedge, Umbrella plant response rating
Method in brief: as §1

[5] = test system: Galium (catchweed bedstraw, Galium aparine); assay: Test A postemergence; details: Galium, post-emergence, 240 h
Method in brief: (§2)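 Preemergence directed soil spray on seeded pots, or postemergence application to plants 2–10 cm, one- to two-leaf. Solvent mixture non-phytotoxic, with surfactant. Scored ~10 d later, visually, 0–100 vs untreated.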

[6] = test system: ryegrass, Italian (Italian ryegrass, Lolium multiflorum); assay: Test A postemergence; details: Lolium multiflorum, post-emergence, 240 h
Method in brief: as §2

[7] = test system: giant foxtail (Setaria faberii); assay: Test A postemergence; details: Setaria faberi, post-emergence, 240 h
Method in brief: as §2

[8] = test system: pigweed (Amaranthus retroflexus); assay: Test A postemergence; details: Amaranthus retroflexus, post-emergence, 240 h
Method in brief: as §2

[9] = test system: blackgrass (Alopecurus myosuroides); assay: Test A postemergence; details: Alopecurus myosuroides, post-emergence, 240 h
Method in brief: as §2

[10] = test system: barnyardgrass (Echinochloa crus-galli); assay: Test A postemergence; details: Echinochloa crus-galli, post-emergence, 240 h
Method in brief: as §2

[11] = test system: Kochia (Kochia scoparia); assay: Test A postemergence; details: Bassia scoparia, post-emergence, 240 h
Method in brief: as §2

[12] = test system: wheat (Triticum aestivum); assay: Test A postemergence; details: Triticum aestivum, post-emergence, 240 h
Method in brief: as §2

[13] = test system: corn (Zea mays); assay: Test A postemergence; details: Zea mays, post-emergence, 240 h
Method in brief: as §2

[14] = test system: ragweed (common ragweed, Ambrosia elatior); assay: Test A postemergence; details: Ambrosia artemisiifolia, post-emergence, 240 h
Method in brief: as §2

[15] = test system: ryegrass, Italian (Italian ryegrass, Lolium multiflorum); assay: Test A preemergence; details: Lolium multiflorum, pre-emergence, 240 h, 0 to 100 scale where 0 is no effect and 100 is complete control, read-out: Ryegrass, Italian plant response rating
Method in brief: as §2

[16] = test system: giant foxtail (Setaria faberii); assay: Test A preemergence; details: Setaria faberi, pre-emergence, 240 h, Preemergence
Method in brief: as §2

[17] = test system: pigweed (Amaranthus retroflexus); assay: Test A preemergence; details: Amaranthus retroflexus, pre-emergence, 240 h, 0 to 100 scale where 0 is no effect and 100 is complete control, read-out: Pigweed plant response rating
[18] = test system: barnyardgrass (Echinochloa crus-galli); assay: Test A preemergence; details: Echinochloa crus-galli, pre-emergence, 240 h, Preemergence
Method in brief: as §2

[19] = test system: Kochia (Kochia scoparia); assay: Test A preemergence; details: Bassia scoparia, pre-emergence, 240 h, 0 to 100 scale where 0 is no effect and 100 is complete control, read-out: Kochia plant response rating
Method in brief: as §2

[20] = test system: ragweed (common ragweed, Ambrosia elatior); assay: Test A preemergence; details: Ambrosia artemisiifolia, pre-emergence, 240 h, 0 to 100 scale where 0 is no effect and 100 is complete control, read-out: Ragweed plant response rating
Method in brief: as §2

[21] = 125 g ai/ha, preemergence, approx. 10 d

CN1C[C@H](c2cccc(C(F)(F)F)c2)[C@@H](C(=O)Nc2cnccc2C(F)(F)F)C1=O [Compound 1066]
pest or weed control at 250 g/ha [1]: 75%
pest or weed control at 250 g/ha [2]: 0%
pest or weed control at 250 g/ha [3]: 45%
pest or weed control at 250 g/ha [4]: 0%
pest or weed control at 125 g/ha ([5]; 125 g ai/ha, postemergence, visual injury on 0 to 100 scale (0 no effect, 100 complete control), approx. 10 d, read-out: Galium plant response rating): 50%
pest or weed control at 31 g/ha ([5]; Postemergence, 31 g ai/ha, visual injury after approx. 10 d, 0 to 100 scale, 0 no effect, 100 complete control, read-out: Plant response rating, Galium): 0%
pest or weed control at 125 g/ha ([6]; 125 g ai/ha, postemergence, visual injury on 0 to 100 scale (0 no effect, 100 complete control), approx. 10 d, read-out: Ryegrass, Italian plant response rating): 30%
pest or weed control at 31 g/ha ([6]; Postemergence, 31 g ai/ha, visual injury after approx. 10 d, 0 to 100 scale, 0 no effect, 100 complete control, read-out: Plant response rating, Ryegrass, Italian): 30%
pest or weed control at 125 g/ha ([7]; 125 g ai/ha, postemergence, visual injury on 0 to 100 scale (0 no effect, 100 complete control), approx. 10 d, read-out: Foxtail, Giant plant response rating): 90%
pest or weed control at 31 g/ha ([7]; Postemergence, 31 g ai/ha, visual injury after approx. 10 d, 0 to 100 scale, 0 no effect, 100 complete control, read-out: Plant response rating, Foxtail, Giant): 70%
pest or weed control at 125 g/ha ([8]; 125 g ai/ha, postemergence, visual injury on 0 to 100 scale (0 no effect, 100 complete control), approx. 10 d, read-out: Pigweed plant response rating): 0%
pest or weed control at 31 g/ha ([8]; Postemergence, 31 g ai/ha, visual injury after approx. 10 d, 0 to 100 scale, 0 no effect, 100 complete control, read-out: Plant response rating, Pigweed): 0%
pest or weed control at 125 g/ha ([9]; 125 g ai/ha, postemergence, visual injury on 0 to 100 scale (0 no effect, 100 complete control), approx. 10 d, read-out: Blackgrass plant response rating): 60%
pest or weed control at 31 g/ha ([9]; Postemergence, 31 g ai/ha, visual injury after approx. 10 d, 0 to 100 scale, 0 no effect, 100 complete control, read-out: Plant response rating, Blackgrass): 0%
pest or weed control at 125 g/ha ([10]; 125 g ai/ha, postemergence, visual injury on 0 to 100 scale (0 no effect, 100 complete control), approx. 10 d, read-out: Barnyardgrass plant response rating): 70%
pest or weed control at 31 g/ha ([10]; Postemergence, 31 g ai/ha, visual injury after approx. 10 d, 0 to 100 scale, 0 no effect, 100 complete control, read-out: Plant response rating, Barnyardgrass): 50%
pest or weed control at 125 g/ha ([11]; 125 g ai/ha, postemergence, visual injury on 0 to 100 scale (0 no effect, 100 complete control), approx. 10 d, read-out: Kochia plant response rating): 0%
pest or weed control at 31 g/ha ([11]; Postemergence, 31 g ai/ha, visual injury after approx. 10 d, 0 to 100 scale, 0 no effect, 100 complete control, read-out: Plant response rating, Kochia): 0%
plant injury at 125 g/ha ([12]; 125 g ai/ha, postemergence, visual injury on 0 to 100 scale (0 no effect, 100 complete control), approx. 10 d, read-out: Wheat plant response rating): 50%
plant injury at 31 g/ha ([12]; Postemergence, 31 g ai/ha, visual injury after approx. 10 d, 0 to 100 scale, 0 no effect, 100 complete control, read-out: Plant response rating, Wheat): 0%
plant injury at 125 g/ha ([13]; 125 g ai/ha, postemergence, visual injury on 0 to 100 scale (0 no effect, 100 complete control), approx. 10 d, read-out: Corn plant response rating): 40%
Corn plant response rating (crop injury, 0 = no effect, 100 = complete kill) at 31 g/ha ([13]; Postemergence, 31 g ai/ha, visual injury after approx. 10 d, 0 to 100 scale, 0 no effect, 100 complete control): 0%
pest or weed control at 125 g/ha ([14]; 125 g ai/ha, postemergence, visual injury on 0 to 100 scale (0 no effect, 100 complete control), approx. 10 d, read-out: Ragweed plant response rating): 0%
pest or weed control at 31 g/ha ([14]; Postemergence, 31 g ai/ha, visual injury after approx. 10 d, 0 to 100 scale, 0 no effect, 100 complete control, read-out: Plant response rating, Ragweed): 0%
pest or weed control at 31 g/ha ([15]; 31 g ai/ha, Preemergence): 20%
pest or weed control at 125 g/ha [15, 21]: 50%
pest or weed control at 31 g/ha ([16]; 31 g ai/ha, 0 to 100 scale where 0 is no effect and 100 is complete control, read-out: Foxtail, Giant plant response rating): 100%
pest or weed control at 125 g/ha ([16]; 125 g ai/ha, visual injury rating after approximately 10 d, read-out: Foxtail, Giant plant response rating (0 to 100 scale, 0 is no effect, 100 is complete control)): 100%
pest or weed control at 31 g/ha ([17]; 31 g ai/ha, Preemergence): 0%
pest or weed control at 125 g/ha [17, 21]: 20%
pest or weed control at 31 g/ha ([18]; 31 g ai/ha, 0 to 100 scale where 0 is no effect and 100 is complete control, read-out: Barnyardgrass plant response rating): 50%
pest or weed control at 125 g/ha ([18]; 125 g ai/ha, visual injury rating after approximately 10 d, read-out: Barnyardgrass plant response rating (0 to 100 scale, 0 is no effect, 100 is complete control)): 100%
pest or weed control at 31 g/ha ([19]; 31 g ai/ha, Preemergence): 0%
pest or weed control at 125 g/ha [19, 21]: 20%
pest or weed control at 31 g/ha ([20]; 31 g ai/ha, Preemergence): 0%
pest or weed control at 125 g/ha [20, 21]: 0%
